According to patent publication US20230278972A1, “SUBSTITUTED HALOALKYL SULFONANILIDE HERBICIDES” (FMC Corporation, priority 2020, published 2023):

Columns and labels:
Assay type in all cases: in vivo
[1] = test system: Oat, Wild (wild oat, Avena fatua); test: Test A1 preemergence, Oat, Wild
How it was run: (§1)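 Both timings started from seed in a loam-sand blend. Preemergence pots got a directed soil application immediately; postemergence pots were sprayed when seedlings had one or two leaves and stood 2–10 cm. Each compound was prepared in a non-phytotoxic solvent plus surfactant.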

[2] = test system: Pigweed, Palmer (palmer amaranth, palmer pigweed, Amaranthus palmeri); test: Test A1 preemergence, Pigweed, Palmer
How it was run: as §1

[3] = test system: ducksalad (Heteranthera limosa); test: Test B1 flooded paddy test, ducksalad; conditions: 250 g ai/ha, Flood, applied to paddy water, 2-leaf stage, visually evaluated after 10 to 14 days
From the text: (§2) A dash (-) response means no test result.

soybean (Glycine max) = test: Test A1 preemergence, soybean
How it was run: as §1

[4] = test system: Ryegrass, Italian (Italian ryegrass, Lolium multiflorum); test: Test A1 postemergence, Ryegrass, Italian; conditions: Postemergence
How it was run: (§3)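 Plants were grown in a loam soil/sand blend, with test chemicals formulated in a non-phytotoxic solvent mixture containing surfactant. Preemergence treatment (corn) was a directed soil spray at planting. Postemergence treatment was applied to plants 2 to 10 cm tall at the one- to two-leaf stage.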

[5] = test system: Oat, Wild (wild oat, Avena fatua); test: Test A1 postemergence, Oat, Wild; conditions: Postemergence
How it was run: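 Postemergence species (ragweed, Palmer pigweed, wild oat) were sprayed at one- to two-leaf stage, 2 to 10 cm tall. Corn was treated preemergence by directed soil spray. Both used a loam soil/sand blend and compounds in a non-phytotoxic solvent mixture with surfactant.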

[6] = test system: horseweed (Erigeron canadensis); test: Test A1 postemergence, horseweed; conditions: Postemergence
How it was run: as §3

[7] = test system: barnyardgrass (Echinochloa crus-galli); test: Test B1 flooded paddy test, barnyardgrass; conditions: 250 g ai/ha, Flood, applied to paddy water, 2-leaf stage, visually evaluated after 10 to 14 days
From the text: as §2

kochia (Bassia scoparia) = test: Test A1 preemergence, kochia
How it was run: as §1

[8] = test system: wheat (Triticum aestivum); test: Test A1 preemergence, wheat
How it was run: as §1

[9] = 31 g ai/ha, 0 to 100 scale (0 no effect, 100 complete control)
[10] = 125 g ai/ha, 0 to 100 scale, 0 no effect, 100 complete control
[11] = 31 g ai/ha, 0 to 100 scale (0 no effect, 100 complete control), 10 days

Cc1cc(C)c(C2=NOC3CCCCCC23)cc1NS(=O)(=O)C(F)(F)F (stereo not drawn) [Compound 292]
Plant response rating, Oat, Wild [1, 9]: 0
Plant response rating, Oat, Wild [1, 10]: 50
Plant response rating, Pigweed, Palmer [2, 9]: 60
Plant response rating, Pigweed, Palmer [2, 10]: 60
Plant response rating, Ducksalad (0 to 100 scale, 0 is no effect, 100 is complete control) [3]: 95
Plant response rating, Soybean (soybean (Glycine max); [9]): 0
Plant response rating, Soybean (soybean (Glycine max); [10]): 40
Plant response rating, Ryegrass, Italian [4, 11]: 0
Plant response rating, Ryegrass, Italian ([4]; 125 g ai/ha, 0 to 100 scale): 30
Plant response rating, Oat, Wild [5, 11]: 10
Plant response rating, Oat, Wild ([5]; 125 g ai/ha, 0 to 100 scale): 30
Plant response rating, Horseweed [6, 11]: 0
Plant response rating, Horseweed ([6]; 125 g ai/ha, 0 to 100 scale): 30
Plant response rating, Barnyardgrass (0 to 100 scale, 0 is no effect, 100 is complete control) [7]: 0
Plant response rating, Kochia (kochia (Bassia scoparia); [9]): 30
Plant response rating, Kochia (kochia (Bassia scoparia); [10]): 80
Plant response rating, Wheat [8, 9]: 20
Plant response rating, Wheat [8, 10]: 90

Cc1cc(C)c(N(COC(=O)C(C)(C)C)S(=O)(=O)C(F)(F)F)cc1C(=O)N1CCC(C)CC1 [Compound 353]
Plant response rating, Oat, Wild [1, 9]: 0
Plant response rating, Oat, Wild [1, 10]: 0
Plant response rating, Pigweed, Palmer [2, 9]: 30
Plant response rating, Pigweed, Palmer [2, 10]: 40
Plant response rating, Ducksalad (0 to 100 scale, 0 is no effect, 100 is complete control) [3]: 65
Plant response rating, Soybean (soybean (Glycine max); [9]): 10
Plant response rating, Soybean (soybean (Glycine max); [10]): 30
Plant response rating, Ryegrass, Italian [4, 11]: 0
Plant response rating, Ryegrass, Italian ([4]; 125 g ai/ha, 0 to 100 scale): 0
Plant response rating, Oat, Wild [5, 11]: 0
Plant response rating, Oat, Wild ([5]; 125 g ai/ha, 0 to 100 scale): 10
Plant response rating, Horseweed [6, 11]: 70
Plant response rating, Horseweed ([6]; 125 g ai/ha, 0 to 100 scale): 100
Plant response rating, Barnyardgrass (0 to 100 scale, 0 is no effect, 100 is complete control) [7]: 90
Plant response rating, Kochia (kochia (Bassia scoparia); [9]): 0
Plant response rating, Kochia (kochia (Bassia scoparia); [10]): 20
Plant response rating, Wheat [8, 9]: 0
Plant response rating, Wheat [8, 10]: 0

Cc1cc(C2CC2)c(NS(=O)(=O)C(F)(F)F)cc1C1=NOC2(CCCC2)C1 [Compound 313]
Plant response rating, Oat, Wild [1, 9]: 0
Plant response rating, Oat, Wild [1, 10]: 0
Plant response rating, Pigweed, Palmer [2, 9]: 0
Plant response rating, Pigweed, Palmer [2, 10]: 20
Plant response rating, Ducksalad (0 to 100 scale, 0 is no effect, 100 is complete control) [3]: 0
Plant response rating, Soybean (soybean (Glycine max); [9]): 0
Plant response rating, Soybean (soybean (Glycine max); [10]): 0
Plant response rating, Ryegrass, Italian [4, 11]: 0
Plant response rating, Ryegrass, Italian ([4]; 125 g ai/ha, 0 to 100 scale): 0
Plant response rating, Oat, Wild [5, 11]: 0
Plant response rating, Oat, Wild ([5]; 125 g ai/ha, 0 to 100 scale): 0
Plant response rating, Horseweed [6, 11]: 0
Plant response rating, Horseweed ([6]; 125 g ai/ha, 0 to 100 scale): 0
Plant response rating, Barnyardgrass (0 to 100 scale, 0 is no effect, 100 is complete control) [7]: 0
Plant response rating, Kochia (kochia (Bassia scoparia); [9]): 0
Plant response rating, Kochia (kochia (Bassia scoparia); [10]): 0
Plant response rating, Wheat [8, 9]: 0
Plant response rating, Wheat [8, 10]: 0

Cc1c(NS(=O)(=O)C(F)(F)F)cc(C(=O)N2CCC(F)(F)CC2)c(C)c1C [Compound 357]
Plant response rating, Oat, Wild [1, 9]: 0
Plant response rating, Oat, Wild [1, 10]: 0
Plant response rating, Pigweed, Palmer [2, 9]: 40
Plant response rating, Pigweed, Palmer [2, 10]: 100
Plant response rating, Ducksalad (0 to 100 scale, 0 is no effect, 100 is complete control) [3]: 60
Plant response rating, Soybean (soybean (Glycine max); [9]): 0
Plant response rating, Soybean (soybean (Glycine max); [10]): 20
Plant response rating, Ryegrass, Italian [4, 11]: 20
Plant response rating, Ryegrass, Italian ([4]; 125 g ai/ha, 0 to 100 scale): 20
Plant response rating, Oat, Wild [5, 11]: 0
Plant response rating, Oat, Wild ([5]; 125 g ai/ha, 0 to 100 scale): 0
Plant response rating, Horseweed [6, 11]: 20
Plant response rating, Horseweed ([6]; 125 g ai/ha, 0 to 100 scale): 80
Plant response rating, Barnyardgrass (0 to 100 scale, 0 is no effect, 100 is complete control) [7]: 45
Plant response rating, Kochia (kochia (Bassia scoparia); [9]): 20
Plant response rating, Kochia (kochia (Bassia scoparia); [10]): 40
Plant response rating, Wheat [8, 9]: 0
Plant response rating, Wheat [8, 10]: 10

Cc1c(C(=O)N2C[C@@H](C)O[C@@H](C)C2)cc(N(COC(=O)C(C)(C)C)S(=O)(=O)C(F)(F)F)c(C)c1C [Compound 331]
Plant response rating, Oat, Wild [1, 9]: 0
Plant response rating, Oat, Wild [1, 10]: 0
Plant response rating, Pigweed, Palmer [2, 9]: 0
Plant response rating, Pigweed, Palmer [2, 10]: 30
Plant response rating, Ducksalad (0 to 100 scale, 0 is no effect, 100 is complete control) [3]: 80
Plant response rating, Soybean (soybean (Glycine max); [9]): 0
Plant response rating, Soybean (soybean (Glycine max); [10]): 10
Plant response rating, Ryegrass, Italian [4, 11]: 10
Plant response rating, Ryegrass, Italian ([4]; 125 g ai/ha, 0 to 100 scale): 50
Plant response rating, Oat, Wild [5, 11]: 0
Plant response rating, Oat, Wild ([5]; 125 g ai/ha, 0 to 100 scale): 20
Plant response rating, Horseweed [6, 11]: 70
Plant response rating, Horseweed ([6]; 125 g ai/ha, 0 to 100 scale): 80
Plant response rating, Barnyardgrass (0 to 100 scale, 0 is no effect, 100 is complete control) [7]: 98
Plant response rating, Kochia (kochia (Bassia scoparia); [9]): 0
Plant response rating, Kochia (kochia (Bassia scoparia); [10]): 20
Plant response rating, Wheat [8, 9]: 0
Plant response rating, Wheat [8, 10]: 0
